Measurements published in EP4759814A1, “TRICYCLIC COMPOUND AND USE THEREOF AS MAT2A INHIBITOR” (SK Biopharmaceuticals Co., Ltd., priority 2023, dated 2025).
Where two headings read alike, the source gives them in different places.

Tests used:
MAT2A = target: T1, MAT2A (Homo sapiens, UniProt P31153); assay: MAT2A inhibitory activity, colorimetric phosphate detection (PiColorLock) enzyme assay; format: biochemical; conditions: Test Condition 1 or 2 (not stated which per compound); absorbance at 630 nm
T1 construct: purchased BPS Bioscience (USA) 71401
T1 sequence (P31153 whole entry): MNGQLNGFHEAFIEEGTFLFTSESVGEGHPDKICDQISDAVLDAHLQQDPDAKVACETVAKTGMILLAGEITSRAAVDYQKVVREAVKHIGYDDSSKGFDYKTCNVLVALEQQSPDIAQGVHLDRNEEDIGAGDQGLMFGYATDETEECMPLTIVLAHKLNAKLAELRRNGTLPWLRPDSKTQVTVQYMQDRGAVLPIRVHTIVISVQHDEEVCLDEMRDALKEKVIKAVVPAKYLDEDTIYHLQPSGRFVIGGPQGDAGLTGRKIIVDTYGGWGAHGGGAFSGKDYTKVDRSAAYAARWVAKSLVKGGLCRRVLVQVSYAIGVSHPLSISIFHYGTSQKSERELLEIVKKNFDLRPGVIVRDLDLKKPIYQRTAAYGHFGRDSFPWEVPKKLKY
Description: In vitro assay: Methionine and adenosine triphosphate (ATP) are converted into S-adenosylmethionine (SAM) and inorganic phosphate (pi) via the catalytic action of methionine adenosyltransferase 2A (MAT2A). The produced pi is detected by the PiColorLock™ Phosphate Detection Reagent, which is a colorimetric assay, and the activity of MAT2A can be evaluated according to the amount of pi generated during the enzyme reaction. Each compound was evaluated under Test Condition 1 or 2 as described below.
• Concentration of MAT2A inhibitor: maximum concentration of 50 µM, 5-fold dilution (7 groups in total) • MAT2A concentration: 12 ng/µL • ATP and Met concentration: 100 µM, 80 µM
• Concentration of MAT2A inhibitor: maximum concentration of 1 µM, 3-fold dilution (7 groups in total) • MAT2A concentration: 4 ng/µL • ATP and Met concentration: 300 µM, 150 µM • Reagents: Methionine (catalog number M5308) and ATP (catalog number A2383) were purchased from Sigma-Aldrich (USA). MAT2A (catalog number 71401) was purchased from BPS Bioscience (USA), and PiColorLock™ Phosphate Detection Reagent (catalog number 303-0030) was purchased from Novus (USA).
Assay buffer composition: 50 mM Tris-HCl pH 8.0, 50 mM KCI, 15 mM MgCl2, 0.3 mM EDTA, 0.005 % (w/v) BSA
Experimental procedure: Each compound was diluted 5-fold or 3-fold based on the maximum concentration (5 mM or 1 mM or 0.1 mM) using DMSO. The diluted compounds were diluted 20-fold using assay buffer, and then mixed at a volume ratio of 1:2 with MAT2A (30 ng/µL or 10 ng/µL) diluted with assay buffer and treated for 30 minutes at room temperature. The negative control group is a group untreated with both the MAT2A enzyme and the compound according to an embodiment of the present application, and the positive control group is a group treated only with the MAT2A enzyme and untreated with the compound according to an embodiment of the present application.
In each well of a 384-well plate, 30 µL of the mixed solution and 20 µL of a 1:1 mixed solution of ATP (0.5 mM or 1.5 mM) and Met (0.4 mM or 0.75 mM) were mixed and then treated for 1 hour at room temperature. After the enzyme reaction, 13 µL of a 100:1 mixed solution of PiColorLockTM and Accelerator was treated in each well and reacted for 5 minutes at room temperature. After treating 5 µL of Stabilizer in each well and reacting for 25 minutes at room temperature, the absorbance at 630 nm was measured using SpectraMax M4 (Molecular Devices, USA) to calculate the IC50 value of the compound.
Analysis method: The enzyme activity (%) of each experimental group was calculated as {(average O.D. of compound-treated group - average O.D. of negative control group)/(average O.D. of positive control group - average O.D. of negative control group)} * 100. After preparing a dose-response curve (4-parameter) using the enzyme activity according to the treatment concentration of each compound in GraphPad Prism 9, the 50 % of enzyme inhibitory activity value (IC50) was calculated through non-linear regression analysis. The IC50 results measured for the MAT2A activity inhibitory ability of the compounds according to an embodiment of the present application are shown in Table 2 (+++: more than 1 to 100 nM, ++: more than 100 to 1,000 nM, +: more than 1,000 to 10,000 nM, -: more than 10,000 nM).

[1] = test system: HCT116 (MTAP WT) cell line; assay: Cell proliferation inhibition in wild-type control cells, WST-1 assay; format: cell-based; conditions: maximum concentration 10 µM, read-out: HCT116 WT (IC50, cell proliferation inhibited by 50%)
Description: (§1) The HCT116 (MTAP del) cell line, which is a colorectal cancer cell line with deletion of MTAP gene, was treated with a compound according to an embodiment of the present application as a MAT2A inhibitor, and after culturing for 120 hours, the change in the number of cells was measured with a WST-1 assay reagent. The WST-1 assay is an assay that measures the number of cells by measuring the generation of a chromogenic substance called formazan from tetrazolium salts by intracellular mitochondrial dehydrogenase. In addition, as a control group, a wild-type colorectal cancer HCT116 (MTAP WT) cell line containing the MTAP gene was used to perform the experiment in the same manner as the experimental group.
(§2) Cell lines and reagents: HCT116 (MTAP WT (catalog number HD PAR-034), MTAP del (catalog number HD R02-033)) cell lines were purchased from Horizon Discovery (USA), and RPMI1640 medium (catalog number 22400-093), FBS (Fetal Bovine serum, catalog number 16000044), and Penicillin/Streptomycin (catalog number 15140-122) were purchased from GIBCO (USA). WST-1 (catalog number EZ-BULK150) was purchased from Dogen (Korea).
(§3) Experimental procedure: HCT116 (MTAP WT, MTAP del) cell lines were dispensed into a 96-well plate at a concentration of 1,000 cells/well in RPMI1640 culture medium containing 10% FBS and 1% Penicillin/Streptomycin, and allowed to attach for 24 hours. When the cells were attached to the plate, the drug was diluted 4-fold from a maximum concentration of 10 µM and treated on the cells. After 120 hours of drug treatment, 20 µL of WST-1 solution was treated for 2 hours, and absorbance at 450 nm was measured using SpectraMax M4 (Molecular Devices). Data analysis was calculated by taking the DMSO control group value as 100%. For the IC50 value, the concentration at which cell proliferation is inhibited by 50% was calculated through interpolation using a 4-parameter fit of the dose-response curve using the GraphPad Prism 8.4.3 program. The cancer cell proliferation inhibitory ability and selectivity in MTAP-deficient cancer cells of the compounds according to an embodiment of the present application are described in Table 3 (+++: 1 to 100 nM, ++: more than 100 to 1,000 nM, +: more than 1 to 10 µM, -: more than 10 µM).

[2] = test system: HCT116 (MTAP del) cell line; assay: Cell proliferation inhibition in MTAP-deficient cancer cells, WST-1 assay; format: cell-based; conditions: maximum concentration 10 µM, read-out: HCT116 MTAP^-/- (IC50, cell proliferation inhibited by 50%)
Description: as §1, §2, §3

[3] = Homo sapiens, HCT-116, 120 hours of drug treatment

Structure (SMILES)	IC50 (MAT2A) [nM]	IC50 ([1]; 120 hours of drug treatment) [nM]	IC50 ([2]; 120 hours of drug treatment) [nM]	IC50 [1, 3] [nM]	IC50 [2, 3] [nM]
Cc1ccccc1-n1c(=O)c2nccn2c2ccc(Cl)cc21 (atropisomer, axis not shown; (Ra)) [Example 20, (Ra)-7-chloro-5-(o-tolyl)imidazo[1,2-a]quinoxalin-4(5H)-one]	> 10000	> 10000	> 10000		
Cc1ccccc1-n1c(=O)c2nccn2c2ccc(Cl)cc21 (atropisomer, axis not shown; (Sa)) [Example 21, (Sa)-7-chloro-5-(o-tolyl)imidazo[1,2-a]quinoxalin-4(5H)-one]	1 to 100	> 10000	1 to 100		
Cc1ccccc1-n1c(=O)c2nccn2c2ccc(Cl)cc21 [Example 1, 7-chloro-5-(o-tolyl)imidazo[1,2-a]quinoxalin-4(5H)-one]	100 to 1000			> 10000	100 to 1000
O=c1c2nccn2c2ccc(Cl)cc2n1-c1ccccc1 [Example 2, 7-chloro-5-phenylimidazo[1,2-a]quinoxalin-4(5H)-one]	100 to 1000			> 10000	1000 to 10000
CCc1ccccc1-n1c(=O)c2nccn2c2ccc(Cl)cc21 [Example 3, 7-chloro-5-(2-ethylphenyl)imidazo[1,2-a]quinoxalin-4(5H)-one]	100 to 1000			> 10000	100 to 1000
Cc1cccc(-n2c(=O)c3nccn3c3ccc(Cl)cc32)c1C [Example 4, 7-chloro-5-(2,3-dimethylphenyl)imidazo[1,2-a]quinoxalin-4(5H)-one]	100 to 1000			> 10000	100 to 1000
CC(C)c1ccccc1-n1c(=O)c2nccn2c2ccc(Cl)cc21 [Example 5, 7-chloro-5-(2-isopropylphenyl)imidazo[1,2-a]quinoxalin-4(5H)-one]	100 to 1000			> 10000	1000 to 10000
Cc1c(F)cccc1-n1c(=O)c2nccn2c2ccc(Cl)cc21 [Example 6, 7-chloro-5-(3-fluoro-2-methylphenyl)imidazo[1,2-a]quinoxalin-4(5H)-one]	100 to 1000			1000 to 10000	100 to 1000
O=c1c2nccn2c2ccc(Cl)cc2n1-c1ccccc1C(F)(F)F [Example 7, 7-chloro-5-(2-(trifluoromethyl)phenyl)imidazo[1,2-a]quinoxalin-4(5H)-one]	100 to 1000			> 10000	1000 to 10000
Cc1cc(F)ccc1-n1c(=O)c2nccn2c2ccc(Cl)cc21 [Example 8, 7-chloro-5-(4-fluoro-2-methylphenyl)imidazo[1,2-a]quinoxalin-4(5H)-one]	1000 to 10000			> 10000	> 10000
Cc1ccc(F)cc1-n1c(=O)c2nccn2c2ccc(Cl)cc21 [Example 9, 7-chloro-5-(5-fluoro-2-methylphenyl)imidazo[1,2-a]quinoxalin-4(5H)-one]	> 10000			> 10000	> 10000
Cc1c(F)cccc1-n1c(=O)c2nccn2c2ccc(C(F)(F)F)cc21 [Example 10, 5-(3-fluoro-2-methylphenyl)-7-(trifluoromethyl)imidazo[1,2-a]quinoxalin-4(5H)-one]	1 to 100			100 to 1000	1 to 100
Cc1c(Cl)cccc1-n1c(=O)c2nccn2c2ccc(Cl)cc21 [Example 11, 7-chloro-5-(3-chloro-2-methylphenyl)imidazo[1,2-a]quinoxalin-4(5H)-one]	100 to 1000			100 to 1000	1 to 100
Cc1c(F)cccc1-n1c(=O)c2nccn2c2ccc(C3CC3)cc21 [Example 13, 7-cyclopropyl-5-(3-fluoro-2-methylphenyl)imidazo[1,2-a]quinoxalin-4(5H)-one]	100 to 1000			> 10000	100 to 1000
COc1ccc2c(c1)n(-c1cccc(F)c1C)c(=O)c1nccn12 [Example 14, 5-(3-fluoro-2-methylphenyl)-7-methoxyimidazo[1,2-a]quinoxalin-4(5H)-one]	100 to 1000			> 10000	100 to 1000
Cc1c(F)cccc1-n1c(=O)c2nccn2c2ccc(OC(F)(F)F)cc21 [Example 15, 5-(3-fluoro-2-methylphenyl)-7-(trifluoromethoxy)imidazo[1,2-a]quinoxalin-4(5H)-one]	1000 to 10000			> 10000	100 to 1000
Cc1ccccc1-n1c(=O)c2nccn2c2ccc(C3CC3)cc21 [Example 16, 7-cyclopropyl-5-(o-tolyl)imidazo[1,2-a]quinoxalin-4(5H)-one]	100 to 1000			> 10000	100 to 1000
COc1ccc2c(c1)n(-c1ccccc1C)c(=O)c1nccn12 [Example 17, 7-methoxy-5-(o-tolyl)imidazo[1,2-a]quinoxalin-4(5H)-one]	100 to 1000			> 10000	100 to 1000
Cc1ccccc1-n1c(=O)c2nccn2c2ccc(C#N)cc21 [Example 18, 4-oxo-5-(o-tolyl)-4,5-dihydroimidazo[1,2-a]quinoxalin-7-carbonitrile]	1000 to 10000			> 10000	1000 to 10000
Cc1ccccc1-n1c(=O)c2nccn2c2ccc(OC(F)(F)F)cc21 [Example 19, 5-(o-tolyl)-7-(trifluoromethoxy)imidazo[1,2-a]quinoxalin-4(5H)-one]	1000 to 10000			> 10000	1000 to 10000
Cc1ccccc1-n1c(=O)c2nccn2c2ccc(C(F)F)cc21 [Example 22, 7-(difluoromethyl)-5-(o-tolyl)imidazo[1,2-a]quinoxalin-4(5H)-one]	1 to 100			> 10000	1 to 100
O=c1c2nccn2c2ccc(Cl)cc2n1-c1ccccc1Cl [Example 23, 7-chloro-5-(2-chlorophenyl)imidazo[1,2-a]quinoxalin-4(5H)-one]	1 to 100			> 10000	100 to 1000
